Bounds are passed on as bounds.

Results on two compounds are retold here after ChEMBL document CHEMBL1143643, “Synthesis and evaluation of antiplatelet activity of trihydroxychalcone derivatives” (Bioorg Med Chem Lett, 2005).

The species entered for assay [1] is Oryctolagus cuniculus. As to the kind of experiment: In vitro inhibitory effects on arachidonic acid induced rabbit platelet aggregation upon incubation at 37 degree C for 4 minutes. The format is functional.
Assay [2] is filed under the species Oryctolagus cuniculus. As to the kind of experiment: In vitro inhibitory effects on collagen induced rabbit platelet aggregation upon incubation at 37 degree C for 4 minutes. The format is functional.

On to `CN(C)c1ccc(/C=C/C(=O)c2c(O)cc(O)cc2O)cc1`, for which the IC50 in the assay listed under Oryctolagus cuniculus [1] and in the assay filed under Oryctolagus cuniculus [2] was more than 100 µM each time.
Take `COc1cc(/C=C/C(=O)c2c(O)cc(O)cc2O)ccc1OCc1ccccc1`: the IC50 was found to be 28.5 µM in the assay filed under Oryctolagus cuniculus [1] and 37.4 µM in the assay listed under Oryctolagus cuniculus [2].

As a reminder, the IC50 is the concentration at which inhibition is half-maximal.
